We go through 3 compounds from US20080287384A1, “Methods of Identifying Agents Having Antiangiogenic Activity” (priority 2005, published 2008).

The subject of data set [1] is HMVECs. In words: Cell morphology / actin stress fiber staining. It is filed as cell-based, human. The following applies: treated or lentivirus-transduced.
Data set [2] concerns HMVECs. The data set can be described thus: Endothelial cell migration assay (modified Boyden chamber). It is filed as cell-based, human. Here is the method:
Endothelial Cell Migration Assay-The endothelial cell migration assay was performed as described in, […], Methods Mol Med. 78: 337-47 (2003), incorporated herein by reference. Briefly, HMVECs were starved overnight in media containing 0.1% bovine serum albumin (BSA), harvested, resuspended in DME with 0.1% BSA, plated on the bottom side of a modified Boyden chamber (Nucleopore Corporation, MD), and allowed to attach in the inverted chamber for 2 hours at 37° C. The chamber was then re-inverted, test substances added to the wells of the upper chamber and cells were allowed to migrate for four hours at 37° C. Membranes were recovered, fixed and stained and the number of cells that had migrated to the upper chamber per ten high power fields was counted. Background migration in DME+0.1% BSA was subtracted and the data reported as the number of cells migrated per 10 high power fields (400×). VEGF (R&D Systems, Minneapolis, Minn.) was used as a positive control at a concentration of 100 pg/ml.

For the next data set, the system named is Rap1. Type of data set: cell-based, human. The settings on record: HMVECs.
Data set [3] relates to HMVECs in scaffolds implanted in SCID mice. In words: SCID mouse model of human angiogenesis, in vivo microvessel density. The settings on record: daily local injection for 5 days. The source says: A further assay for evaluating inhibition of tubule formation suitable for use in the presently described methods is an in vivo assay of microvessel density. In this regard, functional human microvessels can be engineered in SCID mice by implanting human dermal microvascular endothelial cells (HMVECs) seeded in biodegradable scaffolds, as described by Nor J E, et al., Lab Invest 81: 453-63 (2001), incorporated herein by reference. These cells organize into microvessels that anastomose with the host vasculature and transport mouse blood cells. Differences in vessel density are quantified post-euthanization by standard immunohistochemical techniques using, for example, anti-human CD31, and counting the number of CD31-positive vessels in a set number of random fields.
SCID Mouse Model of Human Angiogenesis—Functional human microvessels were induced in severe combined immunodeficient (SCID) mice (CB-17 SCID; Taconic, Germantown, N.Y., USA). […]
Determination of In Vivo Microvessel Densities—Formalin fixed, paraffin-embedded implants were generated in order to quantify differences in vessel densities in the tumors of the treated and untreated animals. […] The number of CD31+blood vessels was counted in 10 random fields per sponge using an optical microscope (×400).

Another data set deals with endothelial cells. The following applies: 0.3 mM, low serum conditions, data not shown.
Data set [4] has as its system age-related macular degeneration. The settings on record: 1-2 drops of 0.1% w/v aqueous ophthalmic composition, each eye twice daily.
Source text: A patient complaining of vision loss is diagnosed with age-related macular degeneration.
The subject of another data set is CREB, a substrate of PKA. The data set can be described thus: Phospho-CREB western analysis. The following applies: HMVEC lysates; forskolin given with IBMX per FIG. 5B legend.

Source text for CREB, a substrate of PKA: Cell lysate extraction and western analysis—Cell lysates were collected, resolved by SDS-PAGE, and analyzed by western blot using anti-Phospho-CREB (Ser133) antibody or anti-tubulin antibody at a dilution of 1:1000 or anti-Rap1 at a dilution of 1:500, using standard methods as described in Kuo, W L et al., J. Biol. Chem. 279: 23073-81 (2004), incorporated herein by reference.
Procedure for Rap1: Briefly, cells are lysed in a suitable lysis buffer and clarified by centrifugation. Clarified lysates are incubated with a GST fusion protein containing the Rap-1 binding domain of Ral-GDS coupled to glutathione-sepharose beads. Proteins bound to the beads are then extracted and resolved by sodium dodecyl sulfate-polyacrylamide gel electrophoresis (SDS-PAGE) and subjected to western blot analysis using anti-Rap-1 antibodies.
Rap1 pull down assay—HMVECs were grown to subconfluent in 100 mm plates, starved in EBM2 medium plus 0.1% BSA over night and treated as indicated.
Procedure for mouse cornea: The effect of 8CPT-2Me-cAMP treatment on FGF-induced angiogenesis was investigated using the mouse corneal assay. Mice were injected with either 0.6 or 6 μmoles of 8CPT-2Me-cAMP, concentrations similar to those used for the skin implant scaffolds.

In the case of `CO[C@@H]1[C@@H]2OP(=O)(O)OC[C@H]2O[C@H]1n1c(Sc2ccc(Cl)cc2)nc2c(N)ncnc21` [8CPT-2Me-cAMP, 8-(4-chlorophenylthio)-2′-O-methyladenosine-3′,5′cyclic monophosophate], the cell morphology result with HMVECs [1] is reported as “this effect could be mimicked”. For the same compound, the “concentration giving complete inhibition of VEGF-stimulated migration” value in the data set with HMVECs [2] amounted to 2.5 µM. Besides, the “migration in the absence of VEGF (nonspecific/background migration)” value in the data set on HMVECs [2] (no VEGF) is “no suppression”. In the data set with Rap1, the “Rap1 activation (GTP-bound Rap1)” value was “robust stimulator”. Also, the figures for the “inhibition of number of microvessels” value in data set [3] (0.03 μmoles per implant) and in data set [3] (0.3 μmoles per implant) were “roughly 50%” and “greater than 90%”, respectively. Further, in the data set on endothelial cells, the apoptotic induction entry is listed as “did not detect apoptotic induction”. In addition, in the data set with mouse cornea (0.6 μmoles), the “average area of vascularization relative to control mice” value is “about half”. Moreover, the “mice with detectable vascularization” value with mouse cornea (0.6 μmoles, control 6 out of 6) was 6 out of 8. Moreover, the FGF-induced angiogenesis entry with mouse cornea (6 μmoles (higher dose)) is reported as “effectively suppressed”. The mice showing angiogenesis in the data set on mouse cornea (6 μmoles, control 6 out of 6) was 1 out of 10. Besides, the ocular function result in data set [4] is given as “noticeable improvement”. Further, in the data set with CREB, a substrate of PKA, the CREB phosphorylation entry was “did not induce significant CREB phosphorylation”.
Turning to `C[C@@H](N)[C@H]1CC[C@H](C(=O)Nc2ccncc2)CC1` [Y-27632], in the data set with HMVECs [2], the “effect on VEGF-induced chemotaxis” value is listed as “dose-dependent inhibition”.
On to `O=C(Nc1ncnc2c1ncn2[C@@H]1O[C@@H]2COP(=O)(O)O[C@H]2[C@H]1O)c1ccccc1` [6-Benz-cAMP, N^6-Benzoyladenosine-3′,5′cyclic monophosphate], for which the “effect on VEGF-induced chemotaxis” value with HMVECs [2] is on record as “no effect”.
